What was measured:
[1] = (§1) Inhibition of Nav in mouse Neuro-2a cells assessed as inhibition of ouabain and veratridine-induced cytotoxicity after 24 hrs by WST-8 assay; assay type: cell-based
Neuro-2a = assay: as §1; assay type: cell-based

SMILES | EC50 [1] | inhibition (Neuro-2a)
C[C@]1(O)[C@@H]2O[C@]3(O)O[C@H]1[C@@H](O)[C@@]1(NC(=N)N[C@H](O)[C@@H]21)[C@@H]3O | 0.13 µM | Dose-dependent effect
NC1=N[C@H](O)[C@H]2[C@H]3O[C@]4(O)O[C@@H]([C@@H](O)[C@@]2(N1)[C@@H]4O)[C@]3(O)CO [TETRODOTOXIN] | 0.0021 µM | Dose-dependent effect
N=C1N[C@H](O)[C@H]2[C@H]3O[C@]4(O)O[C@H]([C@@H]3CO)[C@@H](O)[C@@]2(N1)[C@@H]4O | 0.0065 µM | Dose-dependent effect
C[C@H]1[C@H]2O[C@@]3(O)O[C@@H]1[C@@H]1[C@@H](O)NC(=N)N[C@]1([C@@H]2O)[C@@H]3O | 0.4 µM | Dose-dependent effect
